Experimental findings from ChEMBL document CHEMBL1132902, “Bicyclic nucleoside inhibitors of Varicella-Zoster Virus (VZV): the effect of a terminal halogen substitution in the side-chain” (Bioorg Med Chem Lett, 2000) are described below.

In one assay the test system is HEL. Briefly: The compound was tested for cytotoxic concentration required to inhibit Hel cell growth by 50%. The format is functional. As to conditions: Homo sapiens.
Assay [1] concerns Human alphaherpesvirus 3. Briefly: The compound was tested for its effective concentration required to reduce virus plaque formation by using TK (thymidine kinase -deficient) -Varicella-Zoster virus YS/R strain. The format is functional, organism-based.
Assay [2] has as its system Human alphaherpesvirus 3. The assay can be described thus: The compound was tested for its effective concentration required to reduce virus plaque formation by using TK (thymidine kinase -deficient)-Varicella-Zoster virus 07/1 strain. The format is functional, organism-based.
Assay [3] is described as follows: The compound was tested for its minimal cytotoxic concentration required to alter microscopically detectable cell morphology. The format is functional.
Assay [4] has as its system Cytomegalovirus. The assay can be described thus: In vitro activity against Cytomegalovirus virus. It is filed as functional, organism-based.
Assay [5] has as its system Human immunodeficiency virus 1. The assay can be described thus: In vitro activity of compound against HIV-1; Not active. The format is functional, organism-based.
Assay [6] relates to Human alphaherpesvirus 2. The assay can be described thus: In vitro activity against Herpes simplex virus-2. It is filed as functional, organism-based.
Another assay concerns Human alphaherpesvirus 1. The assay can be described thus: In vitro activity against Herpes simplex virus-1; Not active. It is filed as functional, organism-based.
Assay [7] relates to Human alphaherpesvirus 3. Briefly: The compound was tested for its effective concentration required to reduce virus plaque formation by using Varicella-Zoster virus OKA strain. It is filed as functional, organism-based.
Assay [8] has as its system Human alphaherpesvirus 3. Briefly: The compound was tested for its effective concentration required to reduce virus plaque formation by using Varicella-Zoster virus YS strain. The format is functional, organism-based.
The subject of assay [9] is Cytomegalovirus. Briefly: Compound was tested (in vitro) against Cytomegalovirus virus or HIV-1; Not active. The format is functional, organism-based.
Assay [10] has as its system Human alphaherpesvirus 2. Briefly: Compound was tested (in vitro) against Herpes simplex virus-2; Not active. It is filed as functional, organism-based.
The subject of assay [11] is Human alphaherpesvirus 3. The assay can be described thus: The compound was tested for its effective concentration required to reduce virus plaque formation by using TK- (thymidine kinase -deficient)-Varicella-Zoster virus 07/1 strain. It is filed as functional, organism-based.
The subject of assay [12] is Cytomegalovirus. The assay can be described thus: Compound was tested (in vitro) against Cytomegalovirus virus or HIV-1. The format is functional, organism-based.
Assay [13] deals with Human alphaherpesvirus 2. The assay can be described thus: Compound was tested (in vitro) against Herpes simplex virus-2. It is filed as functional, organism-based.

Calls of active or inactive are those of the source. No cut-off for these calls is given here.

Usually CC50 stands for the concentration that lowers cell viability or growth by half. A lower CC50 goes with greater toxicity to the cells. Broadly, the EC50 is the concentration at which the effect is half-maximal. A high value points to a need for much substance. Consider `CCCCCCCCCCc1cc2cn([C@H]3C[C@H](O)[C@@H](CO)O3)c(=O)nc2o1`, for which the CC50 in the assay with HEL is > 50 µM. The 50% effective concentration (EC50) in the assay on Human alphaherpesvirus 3 [1] and in the assay on Human alphaherpesvirus 3 [2] was > 50 µM each time. For the same compound, in assay [3], the MCC was > 50 µM.
As to `O=c1nc2oc(CCCCCCCCCF)cc2cn1[C@H]1C[C@H](O)[C@@H](CO)O1`, the result (in the assay with Cytomegalovirus [4]; in [5]; with Human alphaherpesvirus 2 [6]; in the assay on Human alphaherpesvirus 1) was inactive. This compound also gave a CC50 in the assay with HEL of 200 µM. For the same compound, the half-maximal effective concentration (EC50) is > 20 µM in the assay with Human alphaherpesvirus 3 [1], > 20 µM with Human alphaherpesvirus 3 [2], 0.022 µM in the assay on Human alphaherpesvirus 3 [7] and 0.014 µM in the assay on Human alphaherpesvirus 3 [8]. In assay [3], the MCC is > 50 µM.
With `O=c1nc2oc(CCCCCCCCCI)cc2cn1[C@H]1C[C@H](O)[C@@H](CO)O1`, the outcome (with Cytomegalovirus [9]; in [5]; with Human alphaherpesvirus 2 [10]) was inactive. Also, the CC50 in the assay with HEL is > 200 µM. The concentration giving a half-maximal response (EC50) was > 50 µM in the assay on Human alphaherpesvirus 3 [1], > 50 µM with Human alphaherpesvirus 3 [2], 0.061 µM in the assay on Human alphaherpesvirus 3 [7] and 0.034 µM with Human alphaherpesvirus 3 [8]. This compound returned an MCC in assay [3] of 50 µM.
In the assay with HEL, `O=c1[nH]c(=O)n([C@H]2C[C@H](O)[C@@H](CO)O2)cc1C#CCCCCCCCCCI` had a CC50 of 68 µM. The 50% effective concentration (EC50) with Human alphaherpesvirus 3 [1] was 31 µM; in the assay on Human alphaherpesvirus 3 [2], 36 µM; in the assay on Human alphaherpesvirus 3 [7] it was 13 µM; with Human alphaherpesvirus 3 [8], 6 µM. In addition, the MCC in [3] is > 50 µM.
With `O=c1[nH]c(=O)n([C@H]2C[C@H](O)[C@@H](CO)O2)cc1C#CCCCCCCCCCF`, half-maximal cytotoxicity in the assay with HEL (CC50) was put at 116 µM. For the same compound, the concentration giving a half-maximal response (EC50) in the assay with Human alphaherpesvirus 3 [1] was 23 µM; in the assay on Human alphaherpesvirus 3 [11], 33 µM; in the assay with Human alphaherpesvirus 3 [7] it was 26 µM; in the assay on Human alphaherpesvirus 3 [8], 22 µM. In assay [3], this compound had an MCC of 200 µM.
In turn, `O=c1[nH]c(=O)n([C@H]2C[C@H](O)[C@@H](CO)O2)cc1C#CCCCCCCCCCBr` yielded a CC50 in the assay on HEL of 97 µM. The EC50 was determined as 2.5 µM in the assay with Human alphaherpesvirus 3 [1], 16 µM in the assay with Human alphaherpesvirus 3 [2], 1.1 µM with Human alphaherpesvirus 3 [7] and 0.8 µM with Human alphaherpesvirus 3 [8]. Further, the MCC in [3] came out at 50 µM.
Consider `Nc1nc2c(ncn2COCCO)c(=O)[nH]1` [ACYCLOVIR], for which, in the assay with HEL, the CC50 is > 200 µM. Also, the MCC in assay [3] is > 200 µM.
For `O=c1nc2oc(CCCCCCCCCBr)cc2cn1[C@H]1C[C@H](O)[C@@H](CO)O1`, the result (with Cytomegalovirus [9]; in assay [5]; in the assay with Human alphaherpesvirus 2 [10]) was inactive. In addition, the cytotoxic concentration (CC50) in the assay with HEL was > 50 µM. For the same compound, the EC50 in the assay with Human alphaherpesvirus 3 [1] is 50 µM; in the assay with Human alphaherpesvirus 3 [2], > 50 µM; in the assay with Human alphaherpesvirus 3 [7] it was 0.026 µM; in the assay with Human alphaherpesvirus 3 [8] it was 0.031 µM. Also, the MCC in assay [3] was > 200 µM.
As to `O=c1[nH]c(=O)n([C@H]2C[C@H](O)[C@@H](CO)O2)cc1C#CCCCCCCCCCCl`, half-maximal cytotoxicity with HEL (CC50) was put at 74 µM. The EC50 in the assay on Human alphaherpesvirus 3 [1] is 9.6 µM; in the assay on Human alphaherpesvirus 3 [2], 10 µM; in the assay on Human alphaherpesvirus 3 [7] it was 3.6 µM; with Human alphaherpesvirus 3 [8], 2.8 µM. In addition, the MCC in assay [3] came to 200 µM.
On to `O=c1nc2oc(CCCCCCCCCCl)cc2cn1[C@H]1C[C@H](O)[C@@H](CO)O1`, for which the outcome (in the assay with Cytomegalovirus [12]; in assay [5]; in the assay with Human alphaherpesvirus 2 [13]) was inactive. Also, in the assay with HEL, half-maximal cytotoxicity (CC50) was put at 200 µM. Besides, the EC50 in the assay with Human alphaherpesvirus 3 [1] worked out at 13 µM; in the assay on Human alphaherpesvirus 3 [2], 15 µM; in the assay on Human alphaherpesvirus 3 [7], 0.007 µM; in the assay on Human alphaherpesvirus 3 [8], 0.012 µM. The MCC in assay [3] is > 200 µM.
